Measured values as given in patent publication US7915448B2, “Substituted sulfonylaminoarylmethyl cyclopropanecarboxamide as VR1 receptor antagonists” (Pfizer Inc., priority 2005, dated 2011).
Where two headings read alike, the source gives them in different places.

Experiments:
[1] = human, microsomes, pH 7.4
human VR1 receptors = target: T1, human VR1 receptors (Homo sapiens, UniProt Q8NER1); assay: Human VR1 antagonist assay (Ca2+ imaging); type: cell-based; conditions: cells expressing human VR1, fura-2 Ca2+ imaging, FDSS 6000; capsaicin (300 nM) or acid (pH5.8) stimulation, table does not say which
T1 construct: host or cells: cells highly expressing human VR1; cell type not specified
Summary of the method: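 Human VR1-expressing cells loaded with 5 μM fura-2/AM for 1 h, resuspended at 3.75×10^5 cells/ml and preincubated 15 min at room temperature in the dark with compound. Stimulation by 300 nM capsaicin in KRH buffer pH 7.3, or by acid (HBSS/MES, final pH 5.8) from HBSS-HEPES pH 7.4; fluorescence (ex 340/380 nm, em 510-520 nm) monitored from 1 min before addition for 5 min.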

[2] = Half-life in Human Liver Microsomes (HLM); conditions: pH 7.4; for half-life at 1 μM: human, human liver microsomes (HL101)

T1 sequence (Q8NER1 whole entry): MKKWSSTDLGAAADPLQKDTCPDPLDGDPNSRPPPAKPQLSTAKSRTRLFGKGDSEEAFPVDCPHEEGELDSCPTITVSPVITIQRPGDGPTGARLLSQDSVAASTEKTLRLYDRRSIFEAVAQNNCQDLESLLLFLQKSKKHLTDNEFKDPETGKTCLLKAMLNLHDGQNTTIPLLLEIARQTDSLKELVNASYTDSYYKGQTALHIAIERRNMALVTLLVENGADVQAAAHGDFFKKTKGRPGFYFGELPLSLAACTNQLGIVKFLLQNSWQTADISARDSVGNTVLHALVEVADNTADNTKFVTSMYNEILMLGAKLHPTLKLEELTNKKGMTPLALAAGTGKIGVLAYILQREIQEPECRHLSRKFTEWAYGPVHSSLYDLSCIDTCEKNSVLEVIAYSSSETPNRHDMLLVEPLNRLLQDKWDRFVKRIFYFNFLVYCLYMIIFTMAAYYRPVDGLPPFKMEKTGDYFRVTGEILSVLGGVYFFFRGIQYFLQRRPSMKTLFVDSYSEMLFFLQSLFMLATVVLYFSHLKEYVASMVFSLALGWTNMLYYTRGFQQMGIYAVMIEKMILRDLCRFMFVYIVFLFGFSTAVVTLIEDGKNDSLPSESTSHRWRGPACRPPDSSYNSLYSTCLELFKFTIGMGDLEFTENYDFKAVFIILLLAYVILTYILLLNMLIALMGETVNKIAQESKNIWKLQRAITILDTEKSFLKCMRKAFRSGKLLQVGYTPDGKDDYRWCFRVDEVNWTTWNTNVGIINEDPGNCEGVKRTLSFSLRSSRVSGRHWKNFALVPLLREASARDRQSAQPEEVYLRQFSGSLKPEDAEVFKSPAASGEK

Compound	T1/2 [1] [min]	IC50 (human VR1 receptors) [nM]	T1/2 ([2]; 1 μM compound, 0.78 mg/mL HLM, 37° C., NADPH) [min]	half-life at 1 μM [2] [min]
Cc1cc([C@@H](C)NC(=O)C2CC2c2ccc(C(C)(C)C)cc2)ccc1NS(C)(=O)=O (stereo partly shown) [Example 7, 2-(4-tert-Butylphenyl)-N-((1 FR)-1-{3-methyl-4-[(methylsulfonyl)amino]phenyl}ethyl)cyclopropanecarboxamide]	33	15	–	–
Cc1cc([C@@H](C)NC(=O)[C@H]2C[C@]2(C)c2ccc(C(F)(F)F)cc2)ccc1NS(C)(=O)=O [Example 70, (1S,2S)-2-Methyl-N-((1R)-1-{3-methyl-4-[(methylsulfonyl)amino]phenyl}ethyl)-2-[4-(trifluoromethyl)phenyl]cyclopropanecarboxamide]	–	0.83	38	–
C[C@@H](NC(=O)C1CC1(C)c1ccc(C(F)(F)F)c(F)c1)c1cc(F)c(NS(C)(=O)=O)c(F)c1 (stereo partly drawn) [Example 73, N-((1R)-1-{3,5-Difluoro-4-[(methylsulfonyl)amino]phenyl}ethyl)-2-[3-fluoro-4-(trifluoromethyl)phenyl]-2-methylcyclooropanecarboxamide]	>120	0.76	–	–
C[C@@H](NC(=O)[C@@H]1C[C@@]1(C)c1ccc(C(F)(F)F)c(F)c1)c1cc(F)c(NS(C)(=O)=O)c(F)c1 [Example 74, N-((1R)-1-{3,5-Difluoro-4-[(methylsulfonyl)amino]phenyl}ethyl)-2-[3-fluoro-4-(trifluoromethyl)phenyl]-2-methylcyclopropanecarboxamide]	–	21	–	> 120
CC[C@@H](NC(=O)[C@H]1C[C@@H]1c1cc(F)c(C(C)(C)C)c(F)c1)c1ccc(NS(C)(=O)=O)c(C)c1 [Example 76, 2-(4-tert-Butyl-3,5-difluorophenyl)-N-((1R)-1-{3-methyl-4-[(methylsulfonyl)amino]phenyl}propyl)cyclopropanecarboxamide]	–	26.3	–	33
Cc1cc([C@@H](C)NC(=O)[C@H]2C[C@@H]2c2ccc(C(F)(F)F)nc2N(C)C)c(F)cc1NS(C)(=O)=O [Example 79, 2-[2-(Dimethylamino)-6-(trifluoromethyl)pyridin-3-yl]-N-((1R)-1-{2-fluoro-5-methyl-4-[(methylsulfonyl)amino]phenyl}ethyl)cyclopropanecarboxamide]	–	20.5	–	22
Cc1cc([C@@H](C)NC(=O)[C@H]2C[C@]2(C)c2ccc(C(F)(F)F)nc2N2CCOCC2)ccc1NS(C)(=O)=O [Example 84, 2-Methyl-N-((1R)-1-{3-methyl-4-[(methylsulfonyl)amino]phenyl}ethyl)-2-[2-morpholin-4-yl-6-(trifluoromethyl)pyridin-3-yl]cyclopropanecarboxamide]	–	24.5	–	3
N-((1R)-1-{3,5-Difluoro-4-[(methylsulfonyl)amino]phenyl}ethyl)-2-[3,5-difluoro-4-(2,2,2-trifluoro-1-dimethylethyl)phenyl]-2-methylcyclopropanecarboxamide [Example 80]	117	3.01	–	–
